Test results: patent publication US20240335431A1, “1-H-PYRROLO[2,3-c]PYRIDINE COMPOUNDS” (Acerta Pharma B.V., priority 2023, published 2024)

What follows are compounds tested against muscarinic M2 receptor (Homo sapiens (Human), UniProt P08172) (assay: Muscarinic M2 receptor binding assay (assay 1)). Settings: [3H]AF-DX 384 2 nM, Cheng Prusoff.
Description: Cell membrane homogenates (60 μg protein) were incubated for 60 minutes at 22° C. with 2 nM [3H]AF-DX 384 in the absence or presence of the test compound in a buffer containing 50 mM Tris-HCl (pH 7.4), 120 mM NaCl, 5 mM KCl, 5 mM MgCl2, and 1 mM EDTA. Nonspecific binding was determined in the presence of 1 μM atropine. Following incubation, the samples were filtered rapidly under vacuum through glass fiber filters (GF/B, Packard) presoaked with 0.3% PEI and rinsed several times with ice-cold 50 mM Tris-HCl using a 96-sample cell harvester (Unifilter, Packard). The filters were dried then counted for radioactivity in a scintillation counter (Topcount, Packard) using a scintillation cocktail (Microscint 0, Packard). The results were expressed as a percent inhibition of the control radioligand specific binding, from which the Ki was calculated. Data were analyzed using software developed at Cerep (Hill software) and validated by comparison with data generated by the commercial software SigmaPlot®4.0 for Windows® (© 1997 by SPSS Inc.). The inhibition constant, Ki, was calculated using the Cheng Prusoff equation:
where L=concentration of ligand in the assay, and Kd=affinity of the ligand for the receptor. The standard reference compound was methoctramine, which was tested in each experiment at several concentrations to obtain a competition curve from which its IC50 was calculated.

Chain of muscarinic M2 receptor (P08172 whole entry): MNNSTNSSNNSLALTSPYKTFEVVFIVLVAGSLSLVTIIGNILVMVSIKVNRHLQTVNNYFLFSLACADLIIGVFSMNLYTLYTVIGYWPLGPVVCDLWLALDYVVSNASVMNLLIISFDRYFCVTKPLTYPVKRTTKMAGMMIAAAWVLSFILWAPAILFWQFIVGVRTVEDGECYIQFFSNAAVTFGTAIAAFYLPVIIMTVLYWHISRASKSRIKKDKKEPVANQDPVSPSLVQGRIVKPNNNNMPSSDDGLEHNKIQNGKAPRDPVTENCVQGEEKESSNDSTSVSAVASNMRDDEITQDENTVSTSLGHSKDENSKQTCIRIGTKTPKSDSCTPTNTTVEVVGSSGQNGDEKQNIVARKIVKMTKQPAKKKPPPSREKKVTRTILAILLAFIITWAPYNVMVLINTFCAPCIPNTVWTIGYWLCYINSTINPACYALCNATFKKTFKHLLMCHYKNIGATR

SMILES	Ki [µM]
CC(C)N(C(=O)c1cc(F)ccc1-n1cc(C(=O)[C@H]2CCN(C[C@H]3CC[C@H](NS(C)(=O)=O)CC3)C2)c2ccncc21)C(C)C [Example 1, 5-Fluoro-N,N-diisopropyl-2-(3-((S)-1-(((1r,4S)-4-(methylsulfonamido)-cyclohexyl)methyl)pyrrolidine-3-carbonyl)-1H-pyrrolo[2,3-c]pyridin-1-yl)benzamide]	8.1
CC(C)N(C(=O)c1cc(F)ccc1-n1cc(C(=O)C2CCN(C(=O)[C@@H]3CCC4(CC4)N3)CC2)c2ccncc21)C(C)C [Example 24, (S)-2-(3-(1-(4-Azaspiro[2.4]heptane-5-carbonyl)piperidine-4-carbonyl)-1H-pyrrolo[2,3-c]pyridin-1-yl)-5-fluoro-N,N-diisopropylbenzamide]	1.2
CCN(C(=O)c1cc(F)ccc1-n1cc(C(=O)C2CN(C(=O)[C@H]3N[C@@H]4CC[C@H]3C4)C2)c2ccncc21)C(C)C [Example 8, 2-(3-(1-((1R,3S,4S)-2-Azabicyclo[2.2.1]heptane-3-carbonyl)azetidine-3-carbonyl)-1H-pyrrolo[2,3-c]pyridin-1-yl)-N-ethyl-5-fluoro-N-isopropylbenzamide]	8
CC(C)(F)c1ncccc1-c1cc(F)ccc1-n1cc(C(=O)C2CN(C(=O)[C@H]3N[C@@H]4CC[C@H]3C4)C2)c2ccncc21 [Example 13, (1-((1R,3S,4S)-2-Azabicyclo[2.2.1]heptane-3-carbonyl)azetidin-3-yl)(1-(4-fluoro-2-(2-(2-fluoropropan-2-yl)pyridin-3-yl)phenyl)-1H-pyrrolo[2,3-c]pyridin-3-yl)methanone]	9.7
CC(C)N(C(=O)c1cc(F)ccc1-n1cc(C(=O)C2CCN(C(=O)[C@@H]3CC4(CC4)CN3)CC2)c2ccncc21)C(C)C [Example 26, (S)-2-(3-(1-(5-Azaspiro[2.4]heptane-6-carbonyl)piperidine-4-carbonyl)-1H-pyrrolo[2,3-c]pyridin-1-yl)-5-fluoro-N,N-diisopropylbenzamide]	2.6
CC(C)c1cnccc1-c1cc(F)ccc1-n1cc(C(=O)C2CN(C(=O)[C@H]3N[C@@H]4CC[C@H]3C4)C2)c2ccncc21.O=CO [Example 11, (1-((1R,3S,4S)-2-Azabicyclo[2.2.1]heptane-3-carbonyl)azetidin-3-yl)(1-(4-fluoro-2-(3-isopropylpyridin-4-yl)phenyl)-1H-pyrrolo[2,3-c]pyridin-3-yl)methanone 1·formic acid]	5
Cc1c(C(=O)C2CCN(C(=O)[C@@H]3CCC(C)(C)N3)CC2)c2ccncc2n1-c1ccc(F)cc1C(=O)N(C(C)C)C(C)C (single isomer, unassigned) [Example 56-1]	7.4
CC(C)N(C(=O)c1cc(F)ccc1-n1cc(C(=O)C2CN(C(=O)[C@H]3N[C@@H]4CC[C@H]3C4)C2)c2ccnc(F)c21)C(C)C [Example 15, 2-(3-(1-((1R,3S,4S)-2-Azabicyclo[2.2.1]heptane-3-carbonyl)azetidine-3-carbonyl)-7-fluoro-1H-pyrrolo[2,3-c]pyridin-1-yl)-5-fluoro-N,N-diisopropylbenzamide]	13.6
CC(C)c1ncsc1-c1cc(F)ccc1-n1cc(C(=O)C2CN(C(=O)[C@H]3N[C@@H]4CC[C@H]3C4)C2)c2ccncc21.O=CO [Example 12, (1-((1R,3S,4S)-2-Azabicyclo[2.2.1]heptane-3-carbonyl)azetidin-3-yl)(1-(4-fluoro-2-(4-isopropylthiazol-5-yl)phenyl)-1H-pyrrolo[2,3-c]pyridin-3-yl)methanone 1·formic acid]	6.9
Cc1c(C(=O)C2CCN(C(=O)[C@H]3NC[C@@H]4C[C@@H]43)CC2)c2ccncc2n1-c1ccc(F)cc1C(=O)N(C(C)C)[C@H](C)C(F)(F)F (single isomer, unassigned) [Example 57-1]	> 100

The remaining lines, values ahead:

Ki [µM]	SMILES
2.3	CC(C)N(C(=O)c1cc(F)ccc1-n1cc(C(=O)C2CN(C(=O)[C@H]3NC4CCC3CC4)C2)c2ccncc21)C(C)C [Example 6, (S)-2-(3-(1-(2-Azabicyclo[2.2.2]octane-3-carbonyl)azetidine-3-carbonyl)-1H-pyrrolo[2,3-c]pyridin-1-yl)-5-fluoro-N,N-diisopropylbenzamide]
1.6	CC(C)N(C(=O)c1cc(F)ccc1-n1cc(C(=O)C2CCN(C(=O)[C@@H]3CCC(C)(C)N3)CC2)c2ccncc21)C(C)C [Example 27, (S)-2-(3-(1-(5,5-Dimethylpyrrolidine-2-carbonyl)piperidine-4-carbonyl)-1H-pyrrolo[2,3-c]pyridin-1-yl)-5-fluoro-N,N-diisopropylbenzamide]
0.1	CC(C)c1ccncc1-c1cc(F)ccc1-n1cc(C(=O)C2CCN(C(=O)[C@H]3N[C@@H]4CC[C@H]3C4)CC2)c2ccncc21 [Example 41, (1-((1R,3S,4S)-2-Azabicyclo[2.2.1]heptane-3-carbonyl)piperidin-4-yl)(1-(4-fluoro-2-(4-isopropylpyridin-3-yl)phenyl)-1H-pyrrolo[2,3-c]pyridin-3-yl)methanone]
3.8	Cc1c(C(=O)C2CCN(C(=O)[C@H]3NC[C@@H]4C[C@@H]43)CC2)c2ccncc2n1-c1ccc(F)cc1C(=O)N(C(C)C)C(C)C (single isomer, unassigned) [Example 55-1]
0.1	COCCN(C)CCC[C@H](C(C)C)N1CCC(C(=O)c2cn(-c3ccc(F)cc3C(=O)N(C(C)C)C(C)C)c3cnccc23)CC1 (racemic) [Example 23, rac-(R)-5-Fluoro-N,N-diisopropyl-2-(3-(1-(6-((2-methoxyethyl)(methyl)amino)-2-methylhexan-3-yl)piperidine-4-carbonyl)-1H-pyrrolo[2,3-c]pyridin-1-yl)benzamide]
1	C=C1C[C@@H]2CC[C@H]1[C@@H](C(=O)N1CCC(C(=O)c3cn(-c4ccc(F)cc4C(=O)N(C(C)C)C(C)C)c4cnccc34)CC1)N2 [Example 18, 5-Fluoro-N,N-diisopropyl-2-(3-(1-((1S,3S,4R)-5-methylene-2-azabicyclo[2.2.2]-octane-3-carbonyl)piperidine-4-carbonyl)-1H-pyrrolo[2,3-c]pyridin-1-yl)benzamide]
1.9	CC(C)N(C(=O)c1cc(F)ccc1-n1cc(C(=O)C2CCN(C(=O)[C@H]3NC[C@@H]4CC[C@@H]43)CC2)c2ccncc21)C(C)C (relative stereo) [Example 25, rel-2-(3-(1-((1R,2R,5S)-3-Azabicyclo[3.2.0]heptane-2-carbonyl)piperidine-4-carbonyl)-1H-pyrrolo[2,3-c]pyridin-1-yl)-5-fluoro-N,N-diisopropylbenzamide]
0.3	C[C@@H]1CCC[C@H](C)N1C(=O)c1cc(F)ccc1-n1cc(C(=O)C2CCN(C(=O)[C@H]3N[C@@H]4CC[C@H]3C4)CC2)c2ccncc21 [Example 33, (1-((1R,3S,4S)-2-Azabicyclo[2.2.1]heptane-3-carbonyl)piperidin-4-yl)(1-(2-((2R,6S)-2,6-dimethylpiperidine-1-carbonyl)-4-fluorophenyl)-1H-pyrrolo[2,3-c]pyridin-3-yl)methanone]
0.7	CC(C)N(C(=O)c1cc(F)ccc1-n1cc(C(=O)C2CCN(C(=O)[C@H]3N[C@H]4C[C@@H]3[C@@H](F)C4)CC2)c2ccncc21)C(C)C [Example 22, 5-Fluoro-2-(3-(1-((1S,3S,4S,5S)-5-fluoro-2-azabicyclo[2.2.1]heptane-3-carbonyl)piperidine-4-carbonyl)-1H-pyrrolo[2,3-c]pyridin-1-yl)-N,N-diisopropylbenzamide]
0.5	CC(C)c1ncsc1-c1cc(F)ccc1-n1cc(C(=O)C2CCN(C(=O)[C@H]3N[C@@H]4CC[C@H]3C4)CC2)c2ccncc21.O=CO [Example 42, (1-((1R,3S,4S)-2-Azabicyclo[2.2.1]heptane-3-carbonyl)piperidin-4-yl)(1-(4-fluoro-2-(4-isopropylthiazol-5-yl)phenyl)-1H-pyrrolo[2,3-c]pyridin-3-yl)methanone 1·formic acid]
3.5	Cc1c(C(=O)C2CCN(C(=O)[C@H]3NC[C@@H]4C[C@@H]43)CC2)c2ccncc2n1-c1ccc(F)cc1-c1cnccc1C(C)C [Example 54, (1-((1S,2S,5R)-3-Azabicyclo[3.1.0]hexane-2-carbonyl)piperidin-4-yl)(1-(4-fluoro-2-(4-isopropylpyridin-3-yl)phenyl)-2-methyl-1H-pyrrolo[2,3-c]pyridin-3-yl)methanone]
2.8	CC(C)N(C(=O)c1cc(F)ccc1-n1cc(C(=O)C2CCN(C(=O)[C@H]3N[C@@H]4CC[C@H]3C4)CC2)c2c(F)cncc21)C(C)C.O=CO [Example 44, 2-(3-(1-((1R,3S,4S)-2-Azabicyclo[2.2.1]heptane-3-carbonyl)piperidine-4-carbonyl)-4-fluoro-1H-pyrrolo[2,3-c]pyridin-1-yl)-5-fluoro-N,N-diisopropylbenzamide 1·formic acid]
0.5	CC(C)N(C(=O)c1cc(F)ccc1-n1cc(C(=O)C2CCN(C(=O)[C@H]3NC[C@@H]4CCC[C@@H]43)CC2)c2ccncc21)C(C)C [Example 21, 5-Fluoro-N,N-diisopropyl-2-(3-(1-((1S,3αR,6αS)-octahydrocyclopenta[c]pyrrole-1-carbonyl)piperidine-4-carbonyl)-1H-pyrrolo[2,3-c]pyridin-1-yl)benzamide]
